Experimental data from PMC6704710, “Preclinical evaluation of 3D185, a novel potent inhibitor of FGFR1/2/3 and CSF-1R, in FGFR-dependent and macrophage-dominant cancer models” (Journal of Experimental & Clinical Cancer Research : CR, 2019).
pIC50: −log10 of the molar value.

Tests used:
Assay in all cases: Eurofins kinase panel
Format in all cases: biochemical
EphA8(h) = biological target: T1, EphA8(h) (Homo sapiens, UniProt P29322); conditions: read-out: Inhibition rate (%)
T1 construct: purchased Eurofins (KinaseProfiler)
T1 sequence (P29322 28-1005): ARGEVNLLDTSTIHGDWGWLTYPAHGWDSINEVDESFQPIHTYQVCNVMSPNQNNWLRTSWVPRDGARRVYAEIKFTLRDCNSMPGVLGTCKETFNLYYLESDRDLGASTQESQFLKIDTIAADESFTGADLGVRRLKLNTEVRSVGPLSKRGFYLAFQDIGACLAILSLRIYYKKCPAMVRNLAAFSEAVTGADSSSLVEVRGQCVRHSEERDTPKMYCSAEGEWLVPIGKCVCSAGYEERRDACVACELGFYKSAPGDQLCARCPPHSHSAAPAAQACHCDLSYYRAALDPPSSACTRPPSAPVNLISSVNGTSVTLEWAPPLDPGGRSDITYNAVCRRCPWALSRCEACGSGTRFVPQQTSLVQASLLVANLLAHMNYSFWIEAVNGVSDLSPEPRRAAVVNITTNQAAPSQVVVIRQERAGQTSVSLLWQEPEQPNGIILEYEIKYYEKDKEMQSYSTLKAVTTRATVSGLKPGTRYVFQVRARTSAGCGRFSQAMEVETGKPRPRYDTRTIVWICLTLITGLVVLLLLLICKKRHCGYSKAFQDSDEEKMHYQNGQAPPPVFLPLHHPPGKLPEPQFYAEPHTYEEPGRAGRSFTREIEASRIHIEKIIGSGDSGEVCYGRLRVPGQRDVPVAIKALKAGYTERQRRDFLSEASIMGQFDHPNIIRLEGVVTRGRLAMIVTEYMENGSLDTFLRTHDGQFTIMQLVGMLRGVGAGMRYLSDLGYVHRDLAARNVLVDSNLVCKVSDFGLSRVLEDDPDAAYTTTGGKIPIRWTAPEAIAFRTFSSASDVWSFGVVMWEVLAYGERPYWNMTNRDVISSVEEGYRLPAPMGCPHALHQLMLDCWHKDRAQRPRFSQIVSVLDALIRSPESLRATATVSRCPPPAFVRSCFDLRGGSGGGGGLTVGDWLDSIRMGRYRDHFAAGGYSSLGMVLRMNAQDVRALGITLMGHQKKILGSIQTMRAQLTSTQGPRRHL

IKKα(h) = biological target: T2, IKKα(h) (Homo sapiens, UniProt O15111); conditions: read-out: Inhibition rate (%)
T2 construct: purchased Eurofins (KinaseProfiler)
T2 sequence (O15111 1-745): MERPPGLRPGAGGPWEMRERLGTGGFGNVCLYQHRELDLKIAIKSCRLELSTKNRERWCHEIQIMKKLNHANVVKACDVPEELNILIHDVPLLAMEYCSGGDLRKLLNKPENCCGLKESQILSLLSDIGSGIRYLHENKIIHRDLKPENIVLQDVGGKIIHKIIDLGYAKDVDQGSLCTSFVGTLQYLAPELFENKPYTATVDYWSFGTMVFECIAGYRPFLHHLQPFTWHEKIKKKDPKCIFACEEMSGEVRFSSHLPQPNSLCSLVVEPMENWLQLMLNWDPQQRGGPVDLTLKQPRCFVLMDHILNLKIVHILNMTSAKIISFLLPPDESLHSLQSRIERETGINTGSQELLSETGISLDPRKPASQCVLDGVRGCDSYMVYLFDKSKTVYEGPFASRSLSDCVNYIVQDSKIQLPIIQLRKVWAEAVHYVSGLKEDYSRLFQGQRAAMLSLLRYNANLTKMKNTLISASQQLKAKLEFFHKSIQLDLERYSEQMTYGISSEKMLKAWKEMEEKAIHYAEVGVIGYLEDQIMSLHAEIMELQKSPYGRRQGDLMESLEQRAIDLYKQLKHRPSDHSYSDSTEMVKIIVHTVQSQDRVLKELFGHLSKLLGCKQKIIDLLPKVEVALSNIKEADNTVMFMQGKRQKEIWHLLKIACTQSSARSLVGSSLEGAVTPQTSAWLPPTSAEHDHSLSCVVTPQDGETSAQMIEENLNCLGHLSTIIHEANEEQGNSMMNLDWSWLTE

BTK(h) = biological target: T3, BTK(h) (Homo sapiens, UniProt Q06187); conditions: read-out: Inhibition rate (%)
T3 construct: purchased Eurofins (KinaseProfiler)
T3 sequence (Q06187 whole entry): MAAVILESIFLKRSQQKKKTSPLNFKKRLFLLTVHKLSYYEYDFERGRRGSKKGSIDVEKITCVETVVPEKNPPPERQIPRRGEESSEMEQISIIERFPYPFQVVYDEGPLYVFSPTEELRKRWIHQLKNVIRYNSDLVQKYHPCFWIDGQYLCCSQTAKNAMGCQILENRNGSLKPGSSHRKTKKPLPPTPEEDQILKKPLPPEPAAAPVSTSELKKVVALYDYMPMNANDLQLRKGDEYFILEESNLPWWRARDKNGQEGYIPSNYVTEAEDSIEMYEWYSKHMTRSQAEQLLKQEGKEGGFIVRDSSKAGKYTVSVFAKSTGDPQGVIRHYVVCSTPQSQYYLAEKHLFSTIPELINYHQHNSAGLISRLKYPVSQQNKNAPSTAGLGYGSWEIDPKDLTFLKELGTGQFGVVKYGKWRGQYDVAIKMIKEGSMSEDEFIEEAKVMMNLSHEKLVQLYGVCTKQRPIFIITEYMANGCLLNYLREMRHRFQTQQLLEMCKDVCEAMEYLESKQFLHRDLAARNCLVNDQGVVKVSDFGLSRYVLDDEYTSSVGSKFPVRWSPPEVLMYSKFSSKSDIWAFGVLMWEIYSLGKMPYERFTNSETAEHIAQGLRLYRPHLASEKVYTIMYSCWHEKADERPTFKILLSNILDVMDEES

PAK6(h) = biological target: T4, PAK6(h) (Homo sapiens, UniProt Q9NQU5); conditions: read-out: Inhibition rate (%)
T4 construct: purchased Eurofins (KinaseProfiler)
T4 sequence (Q9NQU5 whole entry): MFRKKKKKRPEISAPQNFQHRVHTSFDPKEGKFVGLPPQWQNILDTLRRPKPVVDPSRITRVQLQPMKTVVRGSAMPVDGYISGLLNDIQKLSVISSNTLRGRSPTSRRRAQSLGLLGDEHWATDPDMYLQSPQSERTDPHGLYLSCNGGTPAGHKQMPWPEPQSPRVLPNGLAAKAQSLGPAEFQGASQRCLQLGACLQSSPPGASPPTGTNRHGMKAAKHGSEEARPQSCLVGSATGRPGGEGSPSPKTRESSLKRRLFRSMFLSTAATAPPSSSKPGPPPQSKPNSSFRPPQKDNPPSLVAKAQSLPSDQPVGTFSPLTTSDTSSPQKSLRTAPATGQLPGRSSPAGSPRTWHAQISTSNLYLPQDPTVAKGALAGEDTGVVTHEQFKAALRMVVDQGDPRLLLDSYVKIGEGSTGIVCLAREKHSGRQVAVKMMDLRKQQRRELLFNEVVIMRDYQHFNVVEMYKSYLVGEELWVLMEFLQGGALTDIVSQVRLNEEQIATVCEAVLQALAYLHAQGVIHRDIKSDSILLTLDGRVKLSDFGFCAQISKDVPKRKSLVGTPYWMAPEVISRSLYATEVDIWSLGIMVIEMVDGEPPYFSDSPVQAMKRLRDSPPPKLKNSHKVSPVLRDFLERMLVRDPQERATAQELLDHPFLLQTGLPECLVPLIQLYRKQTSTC

MAPKAP-K3(h) = biological target: T5, MAPKAP-K3(h) (Homo sapiens, UniProt Q16644); conditions: read-out: Inhibition rate (%)
T5 construct: purchased Eurofins (KinaseProfiler)
T5 sequence (Q16644 whole entry): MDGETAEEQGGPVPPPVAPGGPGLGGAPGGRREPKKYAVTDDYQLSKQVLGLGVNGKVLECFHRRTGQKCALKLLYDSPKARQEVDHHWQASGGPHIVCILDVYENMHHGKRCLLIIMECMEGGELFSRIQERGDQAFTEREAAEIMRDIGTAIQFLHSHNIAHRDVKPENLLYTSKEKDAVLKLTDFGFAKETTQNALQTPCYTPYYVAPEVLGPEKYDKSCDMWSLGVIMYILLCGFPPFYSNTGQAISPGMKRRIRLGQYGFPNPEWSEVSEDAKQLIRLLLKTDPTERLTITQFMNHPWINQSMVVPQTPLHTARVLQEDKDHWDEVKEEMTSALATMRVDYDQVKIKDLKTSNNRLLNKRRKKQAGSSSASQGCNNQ

Lck(h) activated = biological target: T6, Lck(h) activated (Homo sapiens, UniProt P06239); conditions: read-out: Inhibition rate (%)
T6 construct: purchased Eurofins (KinaseProfiler)

Cdc7/cyclinB1(h) = biological target: T7, Cdc7/cyclinB1(h) (Homo sapiens, UniProt O00311); conditions: read-out: Inhibition rate (%)
T7 construct: purchased Eurofins (KinaseProfiler)
T7 sequence (O00311 whole entry): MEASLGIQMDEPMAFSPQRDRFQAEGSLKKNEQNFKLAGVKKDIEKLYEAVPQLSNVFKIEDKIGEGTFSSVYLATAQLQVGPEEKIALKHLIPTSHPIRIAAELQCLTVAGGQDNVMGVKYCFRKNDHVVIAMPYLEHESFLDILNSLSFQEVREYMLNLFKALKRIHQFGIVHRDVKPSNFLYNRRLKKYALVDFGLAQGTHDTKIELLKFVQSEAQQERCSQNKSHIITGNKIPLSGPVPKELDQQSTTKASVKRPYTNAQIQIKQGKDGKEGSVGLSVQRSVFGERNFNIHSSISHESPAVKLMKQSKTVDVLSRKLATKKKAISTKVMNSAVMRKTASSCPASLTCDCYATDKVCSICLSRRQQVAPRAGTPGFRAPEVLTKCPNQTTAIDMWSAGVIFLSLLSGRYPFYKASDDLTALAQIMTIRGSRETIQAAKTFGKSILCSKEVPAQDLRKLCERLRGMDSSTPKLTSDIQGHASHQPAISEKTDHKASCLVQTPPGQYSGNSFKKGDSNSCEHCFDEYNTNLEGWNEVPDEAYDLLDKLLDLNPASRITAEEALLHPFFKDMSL

Fms(h) = Fms(h) (Homo sapiens, UniProt P07333)
Sequence of Fms(h) (P07333 20-972): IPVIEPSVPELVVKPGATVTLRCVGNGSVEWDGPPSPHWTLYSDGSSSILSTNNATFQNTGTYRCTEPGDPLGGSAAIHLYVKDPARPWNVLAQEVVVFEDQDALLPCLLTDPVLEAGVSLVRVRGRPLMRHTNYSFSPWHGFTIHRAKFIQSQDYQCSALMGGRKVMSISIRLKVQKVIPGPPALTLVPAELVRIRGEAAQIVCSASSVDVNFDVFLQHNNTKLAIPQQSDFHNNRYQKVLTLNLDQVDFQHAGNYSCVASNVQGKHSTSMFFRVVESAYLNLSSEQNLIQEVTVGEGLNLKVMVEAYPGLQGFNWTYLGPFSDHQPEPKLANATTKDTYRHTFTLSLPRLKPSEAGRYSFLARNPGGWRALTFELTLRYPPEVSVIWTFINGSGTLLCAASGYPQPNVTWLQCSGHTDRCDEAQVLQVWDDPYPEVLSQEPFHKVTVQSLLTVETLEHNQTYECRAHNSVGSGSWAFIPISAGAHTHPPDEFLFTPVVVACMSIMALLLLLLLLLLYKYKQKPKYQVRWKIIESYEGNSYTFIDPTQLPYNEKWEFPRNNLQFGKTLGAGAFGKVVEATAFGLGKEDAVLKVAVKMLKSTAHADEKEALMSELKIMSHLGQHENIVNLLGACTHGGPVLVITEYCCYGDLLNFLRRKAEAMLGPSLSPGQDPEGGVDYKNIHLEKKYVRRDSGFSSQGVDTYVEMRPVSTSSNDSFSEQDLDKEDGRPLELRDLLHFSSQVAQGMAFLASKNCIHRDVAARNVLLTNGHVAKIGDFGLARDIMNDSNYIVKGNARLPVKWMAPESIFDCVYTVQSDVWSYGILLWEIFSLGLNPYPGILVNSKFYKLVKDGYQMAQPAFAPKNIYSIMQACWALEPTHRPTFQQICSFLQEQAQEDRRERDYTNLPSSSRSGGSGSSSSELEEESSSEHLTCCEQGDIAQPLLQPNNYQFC

ROCK-II(h) = biological target: T8, ROCK-II(h) (Homo sapiens, UniProt O75116); conditions: read-out: Inhibition rate (%)
T8 construct: purchased Eurofins (KinaseProfiler)

CDK1/cyclinB(h) = biological target: T9, CDK1/cyclinB(h) (Homo sapiens, UniProt P06493); conditions: read-out: Inhibition rate (%)
T9 construct: purchased Eurofins (KinaseProfiler)
T9 sequence (P06493 whole entry): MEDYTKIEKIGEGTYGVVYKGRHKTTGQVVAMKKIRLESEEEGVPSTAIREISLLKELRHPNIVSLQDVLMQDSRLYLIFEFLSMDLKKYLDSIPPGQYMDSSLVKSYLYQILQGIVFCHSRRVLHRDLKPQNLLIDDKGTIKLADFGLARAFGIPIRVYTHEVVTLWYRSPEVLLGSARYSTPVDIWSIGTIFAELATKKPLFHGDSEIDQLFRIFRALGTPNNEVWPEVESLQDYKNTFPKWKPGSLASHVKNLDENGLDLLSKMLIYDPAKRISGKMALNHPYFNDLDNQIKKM
T9 sequence (P14635 whole entry partner): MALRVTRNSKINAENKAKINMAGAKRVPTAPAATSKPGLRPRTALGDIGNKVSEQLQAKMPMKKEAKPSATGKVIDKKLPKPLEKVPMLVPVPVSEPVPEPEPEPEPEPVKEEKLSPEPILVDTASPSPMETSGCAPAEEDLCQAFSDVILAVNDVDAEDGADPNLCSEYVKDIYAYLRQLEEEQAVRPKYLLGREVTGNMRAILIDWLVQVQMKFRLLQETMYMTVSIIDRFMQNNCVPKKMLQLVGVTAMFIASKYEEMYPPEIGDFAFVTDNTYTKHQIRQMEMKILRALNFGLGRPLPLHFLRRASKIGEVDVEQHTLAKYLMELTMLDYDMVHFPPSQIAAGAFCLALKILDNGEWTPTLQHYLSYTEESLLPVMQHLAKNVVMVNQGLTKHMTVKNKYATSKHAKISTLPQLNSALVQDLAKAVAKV

CDK6/cyclinD3(h) = biological target: T10, CDK6/cyclinD3(h) (Homo sapiens, UniProt Q00534); conditions: read-out: Inhibition rate (%)
T10 construct: purchased Eurofins (KinaseProfiler)
T10 sequence (Q00534 whole entry): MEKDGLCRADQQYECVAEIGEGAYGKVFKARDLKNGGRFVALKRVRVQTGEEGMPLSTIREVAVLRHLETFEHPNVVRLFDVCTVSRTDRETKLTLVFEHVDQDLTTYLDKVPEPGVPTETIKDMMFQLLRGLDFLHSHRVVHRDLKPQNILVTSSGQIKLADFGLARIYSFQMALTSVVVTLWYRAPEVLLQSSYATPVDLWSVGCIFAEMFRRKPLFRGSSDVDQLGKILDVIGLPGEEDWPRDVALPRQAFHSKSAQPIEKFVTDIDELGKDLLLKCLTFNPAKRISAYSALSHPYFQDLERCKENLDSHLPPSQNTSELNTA
T10 sequence (P30281 whole entry partner): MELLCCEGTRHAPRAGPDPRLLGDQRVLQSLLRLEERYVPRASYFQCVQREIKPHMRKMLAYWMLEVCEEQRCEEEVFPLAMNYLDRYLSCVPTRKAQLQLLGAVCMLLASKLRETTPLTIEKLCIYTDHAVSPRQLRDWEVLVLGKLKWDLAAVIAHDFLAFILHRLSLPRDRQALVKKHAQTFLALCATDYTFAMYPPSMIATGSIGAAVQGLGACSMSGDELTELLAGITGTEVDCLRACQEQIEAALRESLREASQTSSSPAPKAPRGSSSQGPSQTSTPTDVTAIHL

Work on `COc1cc(OC)c(Cl)c(-c2ccc3c(NC(=O)c4ccc(N5CCNC(C)(C)C5)cc4)n[nH]c3n2)c1Cl` [3D185] yielded an inhibition at 0.01 µM (EphA8(h); 10 nM) of 1%, an inhibition at 0.1 µM (EphA8(h); 100 nM) of 5% and an inhibition at 1 µM (EphA8(h); 1000 nM) of 29%. For the same molecule, the inhibition at 0.01 µM (IKKα(h); 10 nM) was -3%, the inhibition at 0.1 µM (IKKα(h); 100 nM) was -3% and the inhibition at 1 µM (IKKα(h); 1000 nM) was -7%. For the same molecule, the inhibition at 0.01 µM (BTK(h); 10 nM) was 11%, the inhibition at 0.1 µM (BTK(h); 100 nM) was 39% and the inhibition at 1 µM (BTK(h); 1000 nM) was 90%. For the same molecule, the inhibition at 0.01 µM (PAK6(h); 10 nM) was -3%, the inhibition at 0.1 µM (PAK6(h); 100 nM) was 12% and the inhibition at 1 µM (PAK6(h); 1000 nM) was -4%. For the same molecule, the inhibition at 0.01 µM (MAPKAP-K3(h); 10 nM) was 8%, the inhibition at 0.1 µM (MAPKAP-K3(h); 100 nM) was 17% and the inhibition at 1 µM (MAPKAP-K3(h); 1000 nM) was 19%. For the same molecule, the inhibition at 0.01 µM (Lck(h) activated; 10 nM) was 16%, the inhibition at 0.1 µM (Lck(h) activated; 100 nM) was 59% and the inhibition at 1 µM (Lck(h) activated; 1000 nM) was 92%. The inhibition at 0.01 µM (Cdc7/cyclinB1(h); 10 nM) was 5%, the inhibition at 0.1 µM (Cdc7/cyclinB1(h); 100 nM) was -5% and the inhibition at 1 µM (Cdc7/cyclinB1(h); 1000 nM) was 8%. For the same molecule, the pIC50 (Fms(h); CSF-1R, estimated from 372-kinase panel) was > 8.00, the inhibition at 0.01 µM (Fms(h); read-out: Inhibition rate (%)) was 75% and the inhibition at 0.1 µM (Fms(h); read-out: Inhibition rate (%)) was 93%. It also gave an inhibition at 1 µM (Fms(h); read-out: Inhibition rate (%)) of 96%, an inhibition at 0.01 µM (ROCK-II(h); 10 nM) of 0% and an inhibition at 0.1 µM (ROCK-II(h); 100 nM) of -1%. The inhibition at 1 µM (ROCK-II(h); 1000 nM) was -1%, the inhibition at 0.01 µM (CDK1/cyclinB(h); 10 nM) was 0% and the inhibition at 0.1 µM (CDK1/cyclinB(h); 100 nM) was 2%. The inhibition at 1 µM (CDK1/cyclinB(h); 1000 nM) was -11%, the inhibition at 0.01 µM (CDK6/cyclinD3(h); 10 nM) was 9% and the inhibition at 0.1 µM (CDK6/cyclinD3(h); 100 nM) was 15%. The inhibition at 1 µM (CDK6/cyclinD3(h); 1000 nM) was 16%.
